Source: PubChem BioAssay (NCI)
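Following 48 hours of exposure in 96-well plates, responses at five concentrations were used to interpolate endpoints linearly. Definition used: TGI = concentration required for complete inhibition of growth.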

Columns and labels:
Assay in all cases: inhibition of tumour cell growth, NCI panel, 48 h
[1] = test system: UACC-257 melanoma
[2] = test system: HCT-116 colon
[3] = test system: MDA-MB-435
[4] = test system: NCI-H522 lung
[5] = test system: EKVX NSCLC
[6] = test system: OVCAR-5 ovarian
[7] = test system: CCRF-CEM leukemia
[8] = test system: LOX IMVI melanoma
[9] = test system: DU-145 prostate
[10] = test system: HS 578T breast
[11] = test system: NCI-H460 lung
[12] = test system: SK-OV-3 ovarian
[13] = test system: NCI-H23 lung
[14] = test system: MDA-N
[15] = test system: SF-268 CNS
[16] = test system: SK-MEL-2 melanoma
[17] = test system: SF-295 CNS
[18] = test system: PC-3 prostate
[19] = test system: RXF 393 renal
[20] = test system: BT-549 breast
[21] = test system: IGROV1 ovarian
[22] = test system: SW-620 colon
[23] = test system: NCI/ADR-RES ovarian
[24] = test system: SNB-75 CNS
[25] = test system: OVCAR-4 ovarian
[26] = test system: U251 CNS
[27] = test system: A498 renal
[28] = test system: MCF7 breast
[29] = test system: SF-539 CNS
[30] = test system: HOP-92 NSCLC
[31] = test system: MDA-MB-231 breast
[32] = test system: ACHN renal
[33] = test system: T-47D breast
[34] = test system: 786-0 renal
[35] = test system: OVCAR-3 ovarian
[36] = test system: NCI-H226 lung
[37] = test system: MOLT-4 leukemia
[38] = test system: SNB-19 CNS
[39] = test system: UACC-62 melanoma
[40] = test system: COLO 205 colon
[41] = test system: SN12C renal
[42] = test system: TK-10 renal
[43] = test system: SR leukemia
[44] = test system: RPMI-8226 leukemia
[45] = test system: CAKI-1 renal
[46] = test system: UO-31 renal
[47] = test system: A549 NSCLC
[48] = test system: HL-60(TB) leukemia
[49] = test system: M14 melanoma
[50] = test system: SK-MEL-5 melanoma
[51] = test system: OVCAR-8 ovarian
[52] = test system: HCT-15 colon
[53] = test system: KM12 colon
[54] = test system: HT29 colon
[55] = test system: HOP-62 NSCLC
[56] = test system: SK-MEL-28 melanoma
[57] = test system: MALME-3M melanoma
[58] = test system: K-562 leukemia
[59] = test system: HCC-2998 colon

Measured: TGI

COc1ccc(NC(C)=O)c(C(=O)CCNC(C)=O)c1
> 100 µM: [1] | [2] | [3] | [4] | [5] | [6] | [7] | [8] | [9] | [10] | [11] | [12] | [13] | [14] | [15] | [16] | [17] | [18] | [19] | [20] | [21] | [22] | [23] | [24] | [25] | [26] | [27] | [28] | [29] | [30] | [31] | [32] | [33] | [34] | [35] | [36] | [37] | [38] | [39] | [40] | [41] | [42] | [43] | [44] | [45] | [46] | [47] | [48] | [49] | [50] | [51] | [52] | [53] | [54]

CCOC(=O)NC(N(C)C(C(C)C)P(=O)(OCC)OCC)(C(F)(F)F)C(F)(F)F (centres undefined)
> 100 µM: [1] | [2] | [3] | [4] | [5] | [6] | [55] | [7] | [8] | [9] | [10] | [11] | [13] | [14] | [15] | [16] | [17] | [18] | [56] | [19] | [21] | [22] | [23] | [57] | [24] | [25] | [26] | [27] | [28] | [29] | [30] | [58] | [31] | [32] | [33] | [34] | [35] | [36] | [37] | [38] | [39] | [40] | [41] | [42] | [43] | [44] | [45] | [46] | [47] | [48] | [49] | [50] | [51] | [52] | [53] | [54]

Cn1c2c(c3ccccc31)CC(=O)N1CCCCC1C21OCCO1 (centres undefined)
> 100 µM: [1] | [2] | [3] | [5] | [6] | [55] | [7] | [9] | [10] | [11] | [12] | [59] | [13] | [14] | [15] | [16] | [17] | [18] | [56] | [19] | [20] | [21] | [22] | [23] | [57] | [24] | [25] | [26] | [27] | [28] | [30] | [31] | [32] | [33] | [34] | [35] | [36] | [37] | [38] | [39] | [40] | [41] | [42] | [43] | [44] | [45] | [46] | [47] | [49] | [50] | [51] | [52] | [53] | [54]

CO/N=C1/C(n2[nH]c(=O)n(-c3ccccc3)c2=O)C2C=CC1n1c(=O)n(-c3ccccc3)c(=O)n12 (centres undefined)
> 100 µM: [1] | [2] | [3] | [4] | [5] | [6] | [7] | [8] | [9] | [10] | [11] | [12] | [59] | [13] | [14] | [15] | [16] | [18] | [56] | [19] | [20] | [21] | [22] | [23] | [57] | [24] | [25] | [26] | [27] | [28] | [29] | [58] | [31] | [33] | [34] | [35] | [36] | [37] | [38] | [39] | [40] | [41] | [42] | [43] | [44] | [45] | [46] | [47] | [48] | [49] | [50] | [51] | [52] | [53] | [54]
